From patent US4272437A, “Antibacterial agents, and 4-thio azetidinone intermediates” (priority 1979, dated 1981)
≈ marks a conversion by molar mass, not a printed value.

What was measured:
Str. pneumoniae A-9585 = experiment: MIC, tube dilution, Streptococcus pneumoniae A9585; format: cell-based; conditions: Streptococcus pneumoniae, A9585, Str. pneumoniae A9585; overnight 37° C., Nutrient Broth; read-out: Minimum Inhibitory Concentration (M.I.C.)
Source text: (§1) Representative compounds of the present invention were subjected to in vitro antibiotic screening against a variety of microorganisms.

Str. pyogenes A-9604 = experiment: MIC, tube dilution, Streptococcus pyogenes A9604; format: cell-based; conditions: Streptococcus pyogenes, A9604, Str. pyogenes A9604; overnight 37° C., Nutrient Broth; read-out: Minimum Inhibitory Concentration (M.I.C.)
Source text: as §1

Staph. aureus A-9537 = experiment: MIC, tube dilution, Staphylococcus aureus A9537; format: cell-based; conditions: Staphylococcus aureus, A9537, Staph. aureus A9537; overnight 37° C., Nutrient Broth; read-out: Minimum Inhibitory Concentration (M.I.C.)
Source text: as §1

[1] = system: Staph. aureus A-9537 and 50% serum; experiment: MIC, tube dilution, Staph. aureus A9537 + 50% serum; format: cell-based, Staphylococcus aureus; conditions: Staphylococcus aureus, overnight 37° C., read-out: Minimum Inhibitory Concentration (M.I.C.)
Source text: as §1

[2] = system: Staph. aureus (Pen-Res) A-9606; experiment: MIC, tube dilution, Staphylococcus aureus A9606 (Pen-Res); format: cell-based; conditions: Staphylococcus aureus, Staph. aureus A9606 (Pen-Res); overnight 37° C.; read-out: Minimum Inhibitory Concentration (M.I.C.)
Source text: as §1

[3] = system: Staph. aureus (Meth-Res) A-15097; experiment: MIC, tube dilution, Staphylococcus aureus A15097 (Meth-Res); format: cell-based; conditions: Staphylococcus aureus, Staph. aureus A15097 (Meth-Res); overnight 37° C.; read-out: Minimum Inhibitory Concentration (M.I.C.)
Source text: as §1

Str. faecalis A-20688 = experiment: MIC, tube dilution, Streptococcus faecalis A20688; format: cell-based; conditions: Enterococcus faecalis, A20688, Str. faecalis A20688; overnight 37° C.; read-out: Minimum Inhibitory Concentration (M.I.C.)
Source text: as §1

E. coli A-15119 = experiment: MIC, tube dilution, Escherichia coli A15119; format: cell-based; conditions: Escherichia coli, A15119, E. coli A15119; overnight 37° C.; read-out: Minimum Inhibitory Concentration (M.I.C.)
Source text: as §1

E. coli A-20341-1 = experiment: MIC, tube dilution, Escherichia coli A20341-1; format: cell-based; conditions: Escherichia coli, A203411, E. coli A20341-1; overnight 37° C.; read-out: Minimum Inhibitory Concentration (M.I.C.)
Source text: as §1

K. pneumoniae A-15130 = experiment: MIC, tube dilution, Klebsiella pneumoniae A15130; format: cell-based; conditions: Klebsiella pneumoniae, A15130, K. pneumoniae A15130; overnight 37° C.; read-out: Minimum Inhibitory Concentration (M.I.C.)
Source text: as §1

[4] = system: Klebsiella species A20468; experiment: MIC, tube dilution, Klebsiella species A20468; format: cell-based; conditions: Klebsiella species (K. pneumoniae) A20468; overnight 37° C.; read-out: Minimum Inhibitory Concentration (M.I.C.)
Source text: as §1

Pr. mirabilis A-9900 = experiment: MIC, tube dilution, Proteus mirabilis A9900; format: cell-based; conditions: Proteus mirabilis, A9900, Proteus mirabilis A9900; overnight 37° C.; read-out: Minimum Inhibitory Concentration (M.I.C.)
Source text: as §1

Pr. morganii A-15153 = experiment: MIC, tube dilution, Proteus morganii A15153; format: cell-based; conditions: Morganella morganii, A15153, Proteus morganii A15153; overnight 37° C.; read-out: Minimum Inhibitory Concentration (M.I.C.)
Source text: as §1

Ser. marcescens A-20019 = experiment: MIC, tube dilution, Serratia marcescens A20019; format: cell-based; conditions: Serratia marcescens, A20019, Serratia marcescens A20019; overnight 37° C.; read-out: Minimum Inhibitory Concentration (M.I.C.)
Source text: as §1

Ent. cloacae A-9659 = experiment: MIC, tube dilution, Enterobacter cloacae A9659; format: cell-based; conditions: Enterobacter cloacae, A9659, Enterobacter cloacae A9659; overnight 37° C.; read-out: Minimum Inhibitory Concentration (M.I.C.)
Source text: as §1

Ent. cloacae A-9656 = experiment: MIC, tube dilution, Enterobacter cloacae A9656; format: cell-based; conditions: Enterobacter cloacae, A9656, Enterobacter cloacae A9656; overnight 37° C.; read-out: Minimum Inhibitory Concentration (M.I.C.)
Source text: as §1

Ps. aeruginosa A-9843A = experiment: MIC, tube dilution, Pseudomonas aeruginosa A9843A; format: cell-based; conditions: Pseudomonas aeruginosa, A9843A, read-out: Minimum Inhibitory Concentration (M.I.C.), Pseudomonas aeruginosa A9843A; overnight 37° C.
Source text: as §1

Ps. aeruginosa A-21213 = experiment: MIC, tube dilution, Pseudomonas aeruginosa A21213; format: cell-based; conditions: Pseudomonas aeruginosa, A21213, Pseudomonas aeruginosa A21213; overnight 37° C.; read-out: Minimum Inhibitory Concentration (M.I.C.)
Source text: as §1

Proteus rettgeri A21203 = experiment: MIC, tube dilution, Proteus rettgeri A21203; format: cell-based; conditions: Providencia rettgeri, A21203, Proteus rettgeri A21203; overnight 37° C.; read-out: Minimum Inhibitory Concentration (M.I.C.)
Source text: as §1

Proteus vulgaris A21559 = experiment: MIC, tube dilution, Proteus vulgaris A21559; format: cell-based; conditions: Proteus vulgaris, A21559, Proteus vulgaris A21559; overnight 37° C.; read-out: Minimum Inhibitory Concentration (M.I.C.)
Source text: as §1

SMILES: NC=NCC1=C(C(=O)O)N2C(=O)CC2S1 (centres unmarked) [16 (6)]
- MIC (Str. pneumoniae A-9585): 2 µg/mL (≈ 8.8 µM)
- MIC (Str. pyogenes A-9604): 4 µg/mL (≈ 17.6 µM)
- MIC (Staph. aureus A-9537): 4 µg/mL (≈ 17.6 µM)
- MIC [1]: 63 µg/mL
- MIC [2]: 125 µg/mL (≈ 550 µM)
- MIC [3]: 63 µg/mL (≈ 277 µM)
- MIC (Str. faecalis A-20688): 125 µg/mL (≈ 550 µM)
- MIC (E. coli A-15119): 16 µg/mL (≈ 70.4 µM)
- MIC (E. coli A-20341-1): 125 µg/mL (≈ 550 µM)
- MIC (K. pneumoniae A-15130): 125 µg/mL (≈ 550 µM)
- MIC [4]: > 125 µg/mL
- MIC (Pr. mirabilis A-9900): 16 µg/mL (≈ 70.4 µM)
- MIC (Pr. morganii A-15153): 32 µg/mL (≈ 141 µM)
- MIC (Ser. marcescens A-20019): 63 µg/mL (≈ 277 µM)
- MIC (Ent. cloacae A-9659): 63 µg/mL (≈ 277 µM)
- MIC (Ent. cloacae A-9656): 63 µg/mL (≈ 277 µM)
- MIC (Ps. aeruginosa A-9843A): 32 µg/mL (≈ 141 µM)
- MIC (Ps. aeruginosa A-21213): > 125 µg/mL
- MIC (Proteus rettgeri A21203): 32 µg/mL (≈ 141 µM)
- MIC (Proteus vulgaris A21559): 32 µg/mL (≈ 141 µM)

SMILES: CC1=C(C(=O)O)N2C(=O)[C@H]([C@H]3COC(C)(C)O3)[C@H]2S1 (relative stereo) [Example 104, (4'S,5R,6S and 4'R,5S,6R) 6-(2',2'-Dimethyl-1',3'-dioxolan-4'-yl)-2-methylpenem-3-carboxylic Acid (Isomer B)]
- MIC (Str. pneumoniae A-9585): 16 µg/mL (≈ 56.1 µM)
- MIC (Str. pyogenes A-9604): 32 µg/mL (≈ 112 µM)
- MIC (Staph. aureus A-9537): 63 µg/mL (≈ 221 µM)
- MIC [1]: > 32 µg/mL
- MIC [2]: 63 µg/mL (≈ 221 µM)
- MIC [3]: 63 µg/mL (≈ 221 µM)
- MIC (Str. faecalis A-20688): 63 µg/mL (≈ 221 µM)
- MIC (E. coli A-15119): > 63 µg/mL
- MIC (E. coli A-20341-1): > 63 µg/mL
- MIC (K. pneumoniae A-15130): > 63 µg/mL
- MIC [4]: > 63 µg/mL
- MIC (Pr. mirabilis A-9900): > 63 µg/mL
- MIC (Pr. morganii A-15153): > 63 µg/mL
- MIC (Ser. marcescens A-20019): > 63 µg/mL
- MIC (Ent. cloacae A-9659): > 63 µg/mL
- MIC (Ent. cloacae A-9656): > 63 µg/mL
- MIC (Ps. aeruginosa A-9843A): 63 µg/mL (≈ 221 µM)
- MIC (Ps. aeruginosa A-21213): 63 µg/mL (≈ 221 µM)
- MIC (Proteus rettgeri A21203): 63 µg/mL (≈ 221 µM)
- MIC (Proteus vulgaris A21559): > 63 µg/mL

SMILES: NCCSCC1=C(C(=O)O)N2C(=O)CC2S1 (centres unmarked) [Example 88, 2-(2-Aminoethylthiomethyl)penem-3-carboxylic Acid]
- MIC (Str. pneumoniae A-9585): 0.13 µg/mL (≈ 0.499 µM)
- MIC (Str. pyogenes A-9604): 0.13 µg/mL (≈ 0.499 µM)
- MIC (Staph. aureus A-9537): 0.13 µg/mL (≈ 0.499 µM)
- MIC [1]: 0.5 µg/mL
- MIC [2]: 16 µg/mL (≈ 61.5 µM)
- MIC [3]: 16 µg/mL (≈ 61.5 µM)
- MIC (Str. faecalis A-20688): 63 µg/mL (≈ 242 µM)
- MIC (E. coli A-15119): 4 µg/mL (≈ 15.4 µM)
- MIC (E. coli A-20341-1): 16 µg/mL (≈ 61.5 µM)
- MIC (K. pneumoniae A-15130): 8 µg/mL (≈ 30.7 µM)
- MIC [4]: > 63 µg/mL
- MIC (Pr. mirabilis A-9900): 4 µg/mL (≈ 15.4 µM)
- MIC (Pr. morganii A-15153): 8 µg/mL (≈ 30.7 µM)
- MIC (Ser. marcescens A-20019): 8 µg/mL (≈ 30.7 µM)
- MIC (Ent. cloacae A-9659): 32 µg/mL (≈ 123 µM)
- MIC (Ent. cloacae A-9656): 32 µg/mL (≈ 123 µM)
- MIC (Ps. aeruginosa A-9843A): 63 µg/mL (≈ 242 µM)
- MIC (Ps. aeruginosa A-21213): > 63 µg/mL
- MIC (Proteus rettgeri A21203): 8 µg/mL (≈ 30.7 µM)
- MIC (Proteus vulgaris A21559): 16 µg/mL (≈ 61.5 µM)

SMILES: CC(N)=NCC1=C(C(=O)O)N2C(=O)CC2S1 (centres unmarked) [16 (5)]
- MIC (Str. pneumoniae A-9585): 1 µg/mL (≈ 4.14 µM)
- MIC (Str. pyogenes A-9604): 2 µg/mL (≈ 8.29 µM)
- MIC (Staph. aureus A-9537): 4 µg/mL (≈ 16.6 µM)
- MIC [1]: 32 µg/mL
- MIC [2]: 32 µg/mL (≈ 133 µM)
- MIC [3]: 63 µg/mL (≈ 261 µM)
- MIC (Str. faecalis A-20688): > 63 µg/mL
- MIC (E. coli A-15119): 16 µg/mL (≈ 66.3 µM)
- MIC (E. coli A-20341-1): > 63 µg/mL
- MIC (K. pneumoniae A-15130): 63 µg/mL (≈ 261 µM)
- MIC [4]: > 63 µg/mL
- MIC (Pr. mirabilis A-9900): 8 µg/mL (≈ 33.2 µM)
- MIC (Pr. morganii A-15153): 16 µg/mL (≈ 66.3 µM)
- MIC (Ser. marcescens A-20019): 32 µg/mL (≈ 133 µM)
- MIC (Ent. cloacae A-9659): 63 µg/mL (≈ 261 µM)
- MIC (Ent. cloacae A-9656): 63 µg/mL (≈ 261 µM)
- MIC (Ps. aeruginosa A-9843A): 16 µg/mL (≈ 66.3 µM)
- MIC (Ps. aeruginosa A-21213): 32 µg/mL (≈ 133 µM)
- MIC (Proteus rettgeri A21203): 32 µg/mL (≈ 133 µM)
- MIC (Proteus vulgaris A21559): 63 µg/mL (≈ 261 µM)
